Source: patent publication US20170112896A1, “SMALL MOLECULE RAC OR RHO INHIBITORS” (Ohio State Innovation Foundation, priority 2014, published 2017)
“And” between values parts separate entries of the source, which are not always exact repeats. Equal entries are not always repeated. Square brackets hold non-standard residues; d marks the D form. Peptide text beside a SMILES is read from it. * marks the point of attachment. Lys(5-FITC)NH2 = NC(=O)[C@H](CCCCNC(=S)Nc1ccc2c(c1)C(=O)OC21c2ccc(O)cc2Oc2cc(O)ccc21)N*; FITC = O=C1OC2(c3ccc(O)cc3Oc3cc(O)ccc32)c2ccc(NC(=S)*)cc21; Phe(3,4-F2) = N[C@@H](Cc1ccc(F)c(F)c1)C(=O)O; Phe(4-F) = N[C@@H](Cc1ccc(F)cc1)C(=O)O; d2Nal = N[C@H](Cc1ccc2ccccc2c1)C(=O)O; NMeL = CN[C@@H](CC(C)C)C(=O)O; Tle = CC(C)(C)[C@H](N)C(=O)O; dNle = CCCC[C@@H](N)C(=O)O; Abu = CC[C@H](N)C(=O)O

Columns and labels:
K-Ras(G12V) = target: T1, K-Ras(G12V) (Homo sapiens, UniProt P01116, G12V); assay: Fluorescence anisotropy (FA) binding of FITC-labeled cyclic peptides to K-Ras; conditions: Table 1, resynthesized FITC-labeled library hits, read-out: KD (μM), affinity for K-Ras
T1 construct: The G12V mutant K-Ras (amino acids 1-185) was recombinantly fused to glutathione 5-transferase (GST) at its N-terminus; GST (N, cleaved yes); made in house; host or cells: Escherichia coli BL21
T1 sequence (P01116 1-185 isoform P01116-2 G12V): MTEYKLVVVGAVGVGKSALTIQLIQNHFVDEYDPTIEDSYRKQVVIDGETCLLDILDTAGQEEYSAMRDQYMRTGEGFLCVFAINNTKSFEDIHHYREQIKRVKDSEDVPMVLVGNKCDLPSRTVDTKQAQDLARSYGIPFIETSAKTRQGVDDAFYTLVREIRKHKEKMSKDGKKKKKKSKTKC
Protocol: The cells were grown at 37° C. in Luria broth supplemented with 0.05 mg/mL kanamycin to an OD600 of 0.6 when protein expression was induced by addition of IPTG for a final concentration of 1 mM. After 5 h of incubation at 30° C., the cells were harvested by centrifugation. The cell pellets were lysed by sonication in a lysis buffer (40 mM Tris-HCl, 150 mM NaCl, 0.5% Triton X-100, 5 mM (3-mercaptoethanol, pH 8.0) containing a protease inhibitor cocktail tablets (Sigma). The crude cell lysate was loaded onto a glutathione-Sepharose 4B column (GE Healthcare) and the bound GST-K-Ras was eluted with an elution buffer (50 mM Tris, pH 8.0, 10 mM glutathione). After buffer exchange into PBS, the protein was quickly frozen and stored at −80° C. To generate K-Ras without the GST tag, the GST-K-Ras protein (2 mg in PBS) was treated with 20 units of thrombin (GE Healthcare) for 16 h at 4° C. The reaction mixture was passed through a glutathione-Sepharose 4B column to remove the released GST and the resulting K-Ras protein was stored at −80° C.
(§2) For cyclic peptides derived from single library beads (library screening), K-Ras protein (non-GST fusion, 0-20 μM) was incubated with the TMR-labeled peptide (50 or 100 nM) in 20 μL, of the blocking buffer for 2.5 h at 24° C. The FA values were measured on a Molecular Devices Spectramax M5 spectrofluorimeter, with excitation and emission wavelengths at 545 and 585 nm, respectively. Equilibrium dissociation constants (KD) were determined by plotting the FA values as a function of K-Ras concentration and fitting the data to the equation
(§3) where Y is the measured anisotropy at a given K-Ras concentration x; L is the peptide concentration; Qb/Qf is the correction fact for dye-protein interaction; Amax is the maximum anisotropy at saturating K-Ras concentration; and Amin is the minimum anisotropy. FA analyses with resynthesized FITC-labeled peptides were similarly carried oμL, except that the excitation and emission wavelengths were at 494 and 520 nm, respectively.

[1] = target: T2, Ras(G12V)-Raf RBD interaction (Homo sapiens, UniProt P01116, G12V); assay: HTRF assay, inhibition of Ras-Raf RBD interaction; format: binding; conditions: for increase of Ras binding affinity by substitution: relative to parent 9A5/9A6
T2 construct: The G12V mutant K-Ras (amino acids 1-185) was recombinantly fused to glutathione 5-transferase (GST) at its N-terminus; GST (N, cleaved yes); made in house; host or cells: Escherichia coli BL21
T2 sequence (P01116 1-185 isoform P01116-2 G12V): as above
Protocol: Recombinant HA-tagged K-Ras (no GST, 50 nM), GST-Raf RBD (50 nM each), a monoclonal anti-HA antibody labeled with acceptor d2 (2 μg/mL), a monoclonal anti-GST antibody labeled with donor Tb (0.25 μg/mL) (Cisbio), and increasing concentrations of cyclic peptide (0-20 μM) were mixed in PBS (total volume of 20 μL) in a 384-well plate. The plate was incubated overnight at 4° C. and the HTRF signal was measured on a Molecular Devices Spectramax M5 or a Tecan infinite M1000 Pro plate reader. The data were analyzed by Prism 6.0 from Graphpad Software, Inc. (La Jolla, Calif.) and IC50 values were obtained by fitting the data to dose-response-inhibition curve.

H1299 lung cancer cells = format: cell-based; conditions: for IC50: 72 h; for anti-proliferative activity against lung cancer cells (in words): MTT assay
Protocol: MTT assays (Mosmann, T. (1983) J. Immunol. Methods 65:55) were performed with H1299 lung cancer cells. One hundred μL of H1299 cells (0.5×10^5 cells/mL) were seeded in each well of a 96-well culture plate and allowed to grow overnight in Advanced RPMI medium supplemented with 10% fetal bovine serum (FBS) and 1% penicillin-streptomycin. Varying concentrations of cyclic peptide (0-25 μM) were added to the each well and the cells were incubated at 37° C. with 5% CO2 for 72 hours. Ten μL of a MTT stock solution (Roche) was added into each well. The plate was incubated at 37° C. for 4 h. Then 100 μL of SDS-HCl solubilizing buffer was added into each well, and the resulting solution was mixed thoroughly. The plate was incubated at 37° C. overnight. The absorbance of the formazan product was measured at 570 nm using a Molecular Devices Spectramax M5 plate reader. Each experiment was performed in triplicates and the cells without any peptide added were treated as control.

Rac1 = target: T3, Rac1 (Homo sapiens, UniProt P63000); assay: FA binding of FITC-9A5 to recombinant Rac1
T3 construct: purchased Origene (Rockville, Md.)
Text: (§1) Reagents for peptide synthesis were purchased from Peptides International (Louisville, Ky.), NovaBiochem (La Jolla, Calif.), Anaspec (San Jose, Calif.), Chem-Impex International Inc. (Wood Dale, Ill.), or Aapptec (Lousiville, Ky.). N-Hydroxysuccinimidyl biotin was purchased from Chem-Impex International (Wood Dale, Ill.) and N-(9-fluorenylmethoxycarbonyloxy)succinimide (Fmoc-OSu) from Advanced ChemTech. Phenyl isothiocyanate (PITC), isopropyl13-D-1-thiogalactopyranoside (IPTG), protease inhibitor cocktail tablets, ampicillin and kanamycin were purchased from Sigma-Aldrich. Cell proliferation kit (MTT) was purchased from Roche (Indianapolis, Ind.). Cell culture media, fetal bovine serum, penicillin-streptomycin, 0.25% trypsin-EDTA, DPBS (2.67 mM potassium chloride, 1.47 mM potassium phosphate monobasic, 137 mM sodium chloride, 8.06 mM sodium phosphate dibasic), streptavidin-coated Dynabeads M-280, Texas red N-hydroxysuccinimide ester, and tetramethylrhodamine (TMR) azide were purchased from Invitrogen (Carlsbad, Calif.). Anti-GST-Tb and Anti-HA d2 antibodies were purchased from Cisbio (Bedford, Mass.). Recombinant K-Ras WT, H-Ras WT, Rac1, RhoA and CDC42 were purchased from Origene (Rockville, Md.). Solvents and other chemical reagents were purchased from Sigma-Aldrich or VWR (West Chester, Pa.).

Ras-GDP = Ras-GDP (Homo sapiens, UniProt P01116, G12V); assay: biochemical
Chain of Ras-GDP (P01116 1-185 isoform P01116-2 G12V): as above
Protocol: (§4) To prepare Ras-GTP, purified K-Ras was incubated with 20 mM EDTA plus 2 mM GTP in PBS overnight at 4° C. After addition of 40 mM of MgCl2, the protein was dialyzed against PBS.
as §2
(§5) FA analyses with resynthesized FITC-labeled peptides were similarly carried oμL, except that the excitation and emission wavelengths were at 494 and 520 nm, respectively.

Ras-GTP = Ras-GTP (Homo sapiens, UniProt P01116, G12V); assay: biochemical
Chain of Ras-GTP (P01116 1-185 isoform P01116-2 G12V): as above
Protocol: as §4, §2, §5

Ras-GPPNP = Ras-GPPNP (Homo sapiens, UniProt P01116, G12V); assay: biochemical
Chain of Ras-GPPNP (P01116 1-185 isoform P01116-2 G12V): as above
Protocol: as §4, §2, §5

bovine serum albumin = target: T4, bovine serum albumin (Bos taurus, UniProt P02769); assay: FA binding of FITC-9A5 to control protein BSA
T4 construct: from tissue; host or cells: bovine serum (from the name only)
T4 sequence (P02769 25-607): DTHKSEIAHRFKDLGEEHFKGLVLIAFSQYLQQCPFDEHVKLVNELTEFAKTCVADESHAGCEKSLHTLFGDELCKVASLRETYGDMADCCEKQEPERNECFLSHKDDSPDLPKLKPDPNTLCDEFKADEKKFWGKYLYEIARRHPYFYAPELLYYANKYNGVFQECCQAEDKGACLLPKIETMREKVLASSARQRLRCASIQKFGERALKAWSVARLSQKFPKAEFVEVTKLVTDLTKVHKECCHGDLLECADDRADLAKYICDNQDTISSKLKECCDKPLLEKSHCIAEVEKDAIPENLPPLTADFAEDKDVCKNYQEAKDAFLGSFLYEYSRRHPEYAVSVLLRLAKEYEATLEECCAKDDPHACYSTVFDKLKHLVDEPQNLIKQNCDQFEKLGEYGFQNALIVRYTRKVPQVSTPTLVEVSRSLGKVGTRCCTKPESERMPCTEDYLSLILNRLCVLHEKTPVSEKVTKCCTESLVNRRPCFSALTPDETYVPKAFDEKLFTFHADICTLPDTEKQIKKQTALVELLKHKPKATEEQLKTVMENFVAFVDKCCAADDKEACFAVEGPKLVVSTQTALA
Protocol: The FA values were measured on a Molecular Devices Spectramax M5 spectrofluorimeter, with excitation and emission wavelengths at 545 and 585 nm, respectively. Equilibrium dissociation constants (KD) were determined by plotting the FA values as a function of K-Ras concentration and fitting the data to the equation
as §3

RhoA = target: T5, RhoA (Homo sapiens, UniProt P61586); assay: FA binding of FITC-9A5 to recombinant RhoA
T5 construct: purchased Origene (Rockville, Md.)
T5 sequence (P61586 whole entry): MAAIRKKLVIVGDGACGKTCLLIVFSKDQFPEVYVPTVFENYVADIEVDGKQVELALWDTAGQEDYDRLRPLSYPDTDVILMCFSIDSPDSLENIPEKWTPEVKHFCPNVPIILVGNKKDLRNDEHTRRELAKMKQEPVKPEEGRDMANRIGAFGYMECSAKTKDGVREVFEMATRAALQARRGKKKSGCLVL
Text: as §1

H-Ras(WT) = target: T6, H-Ras(WT) (Homo sapiens, UniProt P01112); assay: FA binding of FITC-9A5 to H-Ras; conditions: FITC-labeled peptide
T6 construct: purchased Origene (Rockville, Md.)
T6 sequence (P01112 whole entry): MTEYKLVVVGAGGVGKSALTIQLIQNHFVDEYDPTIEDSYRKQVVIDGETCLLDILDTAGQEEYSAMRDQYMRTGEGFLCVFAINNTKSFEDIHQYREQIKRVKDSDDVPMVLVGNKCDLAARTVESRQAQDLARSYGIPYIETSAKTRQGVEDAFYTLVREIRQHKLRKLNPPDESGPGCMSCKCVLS
Text: as §1

| Compound | cell permeability / intracellular fluorescence (A549 lung cancer cells) | IC50 (H1299 lung cancer cells) | increase of Ras binding affinity by substitution [1] | other results |
| --- | --- | --- | --- | --- |
| CC(C)C[C@H]1C(=O)N[C@@H](CCC(=O)N[C@@H](CCCCNC(=S)Nc2ccc3c(c2)C(=O)OC32c3ccc(O)cc3Oc3cc(O)ccc32)C(N)=O)C(=O)N[C@@H](CCCNC(=N)N)C(=O)N[C@@H](CCCNC(=N)N)C(=O)N[C@H](Cc2ccc3ccccc3c2)C(=O)N[C@@H](CCCNC(=N)N)C(=O)N[C@@H](Cc2ccc(F)cc2)C(=O)N[C@H](CC(N)=O)C(=O)N[C@H](Cc2ccc3ccccc3c2)C(=O)N1C [Cyclorasin 3A] (cyclo(E(Lys(5-FITC)NH2)RR[d2Nal]R[Phe(4-F)][dN][d2Nal][NMeL])) |  |  |  | Kd (K-Ras(G12V)): 0.91 ± 0.23 µM |
| CC(C)[C@H]1NC(=O)[C@H](Cc2ccc(O)cc2)NC(=O)[C@H](CCCNC(=N)N)NC(=O)[C@H](Cc2ccc(F)cc2)NC(=O)[C@H](CCCNC(=N)N)NC(=O)[C@@H](Cc2ccc3ccccc3c2)NC(=O)[C@H](CCCNC(=N)N)NC(=O)[C@H](CCCNC(=N)N)NC(=O)[C@H](CCC(=O)N[C@@H](CCCCNC(=S)Nc2ccc3c(c2)C(=O)OC32c3ccc(O)cc3Oc3cc(O)ccc32)C(N)=O)NC(=O)[C@H](Cc2ccc(F)cc2)NC1=O [Cyclorasin 7A] (cyclo(E(Lys(5-FITC)NH2)RR[d2Nal]R[Phe(4-F)]RY[dV][Phe(4-F)])) |  |  |  | Kd (K-Ras(G12V)): 0.88 ± 0.27 µM |
| CCCC[C@H]1NC(=O)[C@H](Cc2ccc(F)cc2)NC(=O)[C@H](CCCNC(=N)N)NC(=O)[C@@H](Cc2ccc3ccccc3c2)NC(=O)[C@H](CCCNC(=N)N)NC(=O)[C@H](CCCNC(=N)N)NC(=O)[C@@H](CCCNC(=N)N)NC(=O)[C@@H](C)NC(=O)[C@H]([C@@H](C)O)NC(=O)[C@H](Cc2c[nH]c3ccccc23)NC(=O)[C@H](CCC(N)=O)NC1=O [Cyclorasin 9A6] (cyclo(WT[dA][dR]RR[d2Nal]R[Phe(4-F)][dNle]Q)) | improved cell permeability |  |  | higher potency than 9A1 against K-Ras ([1]; relative to 9A1): 3 fold |
| CCCC[C@H]1NC(=O)[C@H](Cc2ccc(F)cc2)NC(=O)[C@H](CCCNC(=N)N)NC(=O)[C@@H](Cc2ccc3ccccc3c2)NC(=O)[C@H](CCCNC(=N)N)NC(=O)[C@H](CCCNC(=N)N)NC(=O)[C@@H](CCCNC(=N)N)NC(=O)[C@@H](C(C)C)NC(=O)[C@H]([C@@H](C)O)NC(=O)[C@H](Cc2c[nH]c3ccccc23)NC(=O)[C@H](CCC(N)=O)NC1=O [Cyclorasin 9A14] (cyclo(WT[dV][dR]RR[d2Nal]R[Phe(4-F)][dNle]Q)) |  | 5.4 ± 2.4 µM | 2 fold |  |
| CCCC[C@H]1NC(=O)[C@H](Cc2ccc(F)cc2)NC(=O)[C@H](CCCNC(=N)N)NC(=O)[C@@H](Cc2ccc3ccccc3c2)NC(=O)[C@H](CCCNC(=N)N)NC(=O)[C@H](CCCNC(=N)N)NC(=O)[C@@H](CCCNC(=N)N)NC(=O)[C@@H](C)NC(=O)[C@H](C(C)(C)C)NC(=O)[C@H](Cc2c[nH]c3ccccc23)NC(=O)[C@H](CCC(N)=O)NC1=O [Cyclorasin 9A16] (cyclo(W[Tle][dA][dR]RR[d2Nal]R[Phe(4-F)][dNle]Q)) |  | 3.5 ± 0.6 µM | 2 fold |  |
| CCCC[C@H]1NC(=O)[C@H](Cc2ccc(F)c(F)c2)NC(=O)[C@H](CCCNC(=N)N)NC(=O)[C@@H](Cc2ccc3ccccc3c2)NC(=O)[C@H](CCCNC(=N)N)NC(=O)[C@H](CCCNC(=N)N)NC(=O)[C@H](CCCNC(=N)N)NC(=O)[C@@H](C)NC(=O)[C@H]([C@@H](C)O)NC(=O)[C@H](Cc2c[nH]c3ccccc23)NC(=O)[C@H](CCC(N)=O)NC1=O [Cyclorasin 9A43] (cyclo(WT[dA]RRR[d2Nal]R[Phe(3,4-F2)][dNle]Q)) |  | 6.9 ± 0.8 µM | 2 fold |  |
| C[C@H]1NC(=O)[C@H]([C@@H](C)O)NC(=O)[C@H](Cc2c[nH]c3ccccc23)NC(=O)[C@H](CCC(N)=O)NC(=O)[C@@H](CCCNC(=N)N)NC(=O)[C@H](Cc2ccc(F)cc2)NC(=O)[C@H](CCCNC(=N)N)NC(=O)[C@@H](Cc2ccc3ccccc3c2)NC(=O)[C@H](CCCNC(=N)N)NC(=O)[C@H](CCCNC(=N)N)NC(=O)[C@H](CCCNC(=N)N)NC1=O [Cyclorasin 9A45] (cyclo(WT[dA]RRR[d2Nal]R[Phe(4-F)][dR]Q)) |  | 8.9 ± 2.1 µM | 4 fold |  |
| CCCC[C@H]1NC(=O)[C@H](Cc2ccc(F)cc2)NC(=O)[C@H](CCCNC(=N)N)NC(=O)[C@@H](Cc2ccc3ccccc3c2)NC(=O)[C@H](CCCNC(=N)N)NC(=O)[C@H](CCCNC(=N)N)NC(=O)[C@H](CCC(=O)N[C@@H](CCCCNC(=S)Nc2ccc3c(c2)C(=O)OC32c3ccc(O)cc3Oc3cc(O)ccc32)C(N)=O)NC(=O)[C@@H](C)NC(=O)[C@H]([C@@H](C)O)NC(=O)[C@H](Cc2c[nH]c3ccccc23)NC(=O)[C@@H](CO)NC1=O [Cyclorasin 9A, (Arg-Arg-nal-Arg-Fpa-nle-ser-Trp-Thr-ala-Gln)] (cyclo(RR[d2Nal]R[Phe(4-F)][dNle][dS]WT[dA]E(Lys(5-FITC)NH2))) | cell permeable | 18 ± 4 µM |  | anti-proliferative activity against lung cancer cells (in words) (H1299 lung cancer cells): weak anti-proliferative activity |
| C[C@H]1NC(=O)[C@H](CCCNC(=N)N)NC(=O)[C@H](Cc2c[nH]c3ccccc23)NC(=O)[C@H](CCCNC(=N)N)NC(=O)[C@H](Cc2ccc(F)cc2)NC(=O)[C@H](CCCNC(=N)N)NC(=O)[C@@H](Cc2ccc3ccccc3c2)NC(=O)[C@H](CCCNC(=N)N)NC(=O)[C@H](CCCNC(=N)N)NC(=O)[C@H](CCC(N)=O)NC1=O [Cyclorasin 12A, (Arg-Arg-nal-Arg-Fpa-Arg-Trp-Arg-ala-Gln)] (cyclo(RR[d2Nal]R[Phe(4-F)]RWR[dA]Q)) | cell permeable |  |  | anti-proliferative activity against lung cancer cells (in words) (H1299 lung cancer cells): weak anti-proliferative activity |
| CC[C@@H]1NC(=O)[C@@H](Cc2ccccc2)NC(=O)[C@H](Cc2ccc(F)cc2)NC(=O)[C@@H](CC(N)=O)NC(=O)[C@H](Cc2ccc(F)cc2)NC(=O)[C@H](CCCNC(=N)N)NC(=O)[C@@H](Cc2ccc3ccccc3c2)NC(=O)[C@H](CCCNC(=N)N)NC(=O)[C@H](CCCNC(=N)N)NC(=O)[C@H](CCC(=O)N[C@@H](CCCCNC(=S)Nc2ccc3c(c2)C(=O)OC32c3ccc(O)cc3Oc3cc(O)ccc32)C(N)=O)NC1=O [Cyclorasin 13A] (cyclo([Abu]E(Lys(5-FITC)NH2)RR[d2Nal]R[Phe(4-F)][dN][Phe(4-F)][dF])) |  |  |  | Kd (K-Ras(G12V)): 1 ± 0.2 µM |
| CCCC[C@H]1NC(=O)[C@H](Cc2ccc(F)cc2)NC(=O)[C@H](CCCNC(=N)N)NC(=O)[C@@H](Cc2ccc3ccccc3c2)NC(=O)[C@H](CCCCNC(=S)Nc2ccc3c(c2)C(=O)OC32c3ccc(O)cc3Oc3cc(O)ccc32)NC(=O)[C@H](CCCNC(=N)N)NC(=O)[C@H](CCCNC(=N)N)NC(=O)[C@@H](C)NC(=O)[C@H]([C@@H](C)O)NC(=O)[C@H](Cc2c[nH]c3ccccc23)NC(=O)[C@H](CCC(N)=O)NC1=O [FITC-9A5] (cyclo(K(FITC)[d2Nal]R[Phe(4-F)][dNle]QWT[dA]RR)) | intense, defuse fluorescence throughout the cytoplasm |  |  | Kd (Rac1): 0.25 µM; Kd (Ras-GDP): 2.5 µM; Kd (Ras-GTP): 0.44 µM; Kd (Ras-GPPNP): 0.64 µM; Kd (bovine serum albumin): 30 µM and 31 µM; Kd (RhoA): 0.18 µM; Kd (H-Ras(WT)): 0.5 µM |
